Tests used:
[1] = tested on: Pseudomonas aeruginosa PA14; experiment: Pyocyanin assay in Pseudomonas aeruginosa; format: cell-based; details: PA14, 16 h, read-out: IC50 Pyocyanin
Description: 1.2.2 Pyocyanin assay in Pseudomonas aeruginosa
Inhibition of pyocyanin biosynthesis of compounds was measured spectrophotometrically as previously described.[2] Pseudomonas aeruginosa PA14 was grown in rich medium for 16 h under agitation with and without compound. Pyocyanin was extracted from cultures with chloroform, then re-extracted with 0.2 M HCl and quantified photometrically (520 nm). IC50 values were determined from dose-response curves of compounds using at least six different concentrations and fitting with non-linear regression analysis (OriginPro 2017–2020, Originlab Corporation). […]

[2] = tested on: 14 PA clinical isolates from bronchiectasis patients; experiment: Pyocyanin inhibition assay in clinical isolates; format: cell-based, Pseudomonas aeruginosa; details: 2 × 10^−6 M 24, LB-medium, 16 h
Description: Pyoverdine determinations. Precultures of each strain were grown 20 h at 37°C in M9 minimal […]
with 30 mM succinate, 2 mM MgSO , 10 μM FeSO and 2.5 mL L−1 of trace elements solution.[10] Next, […]
5 µl of each culture were transferred to 10 ml of M9 minimal medium devoid of iron and trace element solution, and cultured again for 24 h at 37°C with constant shaking. After incubation, the OD600 of the cultures was determined: The cell contained in 1 mL medium were harvested by centrifugation (5 min; 14,000 rpm) and the absorbance at 405 nm (A405nm) of 0.8 ml of the supernatant was determined spectrophotometrically and normalized to the OD600 of the culture measured before (i.e. A405nm, OD600-1). PA14 and PAO1 were also assayed as controls. The experiments were carried out at least in triplicates.
Pyocyanin inhibition assay. The inhibition of pyocyanin production in the clinical isolates (CIs) and the type strains (PA14 and PAO1) was tested by the treatment of LB-grown cultures incubated for 16 h at 37°C with constant shaking with 2 µM of 24/DMSO or with 2 µl of DMSO as control. Pyocyanin extraction and quantification were carried out as described in section 1.2.2. Pyocyanin concentrations (μg mL −1) were calculated by multiplication of its absorbance at 520 nm with a […]
correction factor of 17.072, and normalized to the OD600 of the culture.

hERG = biological target: T1, hERG (Homo sapiens, UniProt Q12809); experiment: hERG safety, single cell electrophysiology; format: cell-based; details: read-out: hERG inhibition IC50
T1 construct: Cyprotex
Description: (§1) 1.4.4 Pharmacokinetic and off-target functional assays (Cyprotex)
(§2) Compound 24 was assayed at Cyprotex in functional assays for interference with important off-targets as well as important pharmacokinetic parameters. With the exception of plasma protein binding, a dose-response relationship was studied in order to calculate IC50 values.
(§3) Table S10. Information on in vitro ADMET assays performed at Cyprotex. […]
(§4) An increase in the number of colonies of at least two-fold over baseline (mean + SD of the vehicle control) and a dose response indicate a positive response. An […]
(§5) different from the vehicle control.
(§6) Where indicated, S9 fraction from the livers of Aroclor 1254-treated rats were included in the incubation at a final concentration of 4.5%. A NADPH-regenerating system was also included to ensure a steady supply of reducing equivalents.

AhR receptor = biological target: T2, AhR receptor (Homo sapiens, UniProt P35869); experiment: AhR nuclear receptor activation, luciferase reporter gene assay; format: cell-based
T2 construct: Cyprotex
Description: as §1, §2, §3, §4, §5, §6

CYP2C9 = biological target: T3, CYP2C9 (Homo sapiens, UniProt P11712); experiment: Cytochrome P450 inhibition assay, CYP2C9; format: in vitro ADME; details: Metabolic activity
T3 construct: Cyprotex
Description: as §1, §2, §3, §4, §5, §6

[3] = biological target: T4, Cav1.2 (L-type) human Ca ion channel (Homo sapiens, UniProt Q13936); experiment: cell-based
T4 construct: Eurofins CYL8051QP2DR
Description: 1.4.2 Further functional off-target assays (Eurofins)
Table S8. Compound 24 was further tested in the following functional assays at Eurofins. […]
Cav1.2 (L-type) human Ca ion channel cell based automated patch >30 µM clamp assay (CYL8051QP2DR) […]
(§7) FLIPR Assay expressed in HEK293 cells
GABAA α5/β3/γ2 ionotropic receptor (human GABRA5, GABRB3, >30 and GABRG2 genes, expressed in HEK293 cells

TRPC6 channel = biological target: T5, TRPC6 channel (Homo sapiens, UniProt Q9Y210); experiment: Ion channel profiling at Charles River: TRPC6; format: cell-based; details: expressed in HEK293 cells; read-out: ESTIMATED IC50
T5 construct: host or cells: HEK293 cells
Description: 1.4.3 Ion Channel Profiling at Charles River
Table S9. Compound 24 was tested against the following ion channels at Charles River Laboratories. […]
ScreenPatch Assay Kv1.3 potassium channel (human KCNA3 gene) expressed in CHO […]
as §7
GABAA α5/β3/γ2 ionotropic receptor (human GABRA5, GABRB3, >30 and GABRG2 genes, expressed in HEK293 cells […]
TRPC6 channel (human TRPC6 gene) expressed in HEK293 cells >30 […]
as §4, §5, §6

T2 sequence (P35869 11-848): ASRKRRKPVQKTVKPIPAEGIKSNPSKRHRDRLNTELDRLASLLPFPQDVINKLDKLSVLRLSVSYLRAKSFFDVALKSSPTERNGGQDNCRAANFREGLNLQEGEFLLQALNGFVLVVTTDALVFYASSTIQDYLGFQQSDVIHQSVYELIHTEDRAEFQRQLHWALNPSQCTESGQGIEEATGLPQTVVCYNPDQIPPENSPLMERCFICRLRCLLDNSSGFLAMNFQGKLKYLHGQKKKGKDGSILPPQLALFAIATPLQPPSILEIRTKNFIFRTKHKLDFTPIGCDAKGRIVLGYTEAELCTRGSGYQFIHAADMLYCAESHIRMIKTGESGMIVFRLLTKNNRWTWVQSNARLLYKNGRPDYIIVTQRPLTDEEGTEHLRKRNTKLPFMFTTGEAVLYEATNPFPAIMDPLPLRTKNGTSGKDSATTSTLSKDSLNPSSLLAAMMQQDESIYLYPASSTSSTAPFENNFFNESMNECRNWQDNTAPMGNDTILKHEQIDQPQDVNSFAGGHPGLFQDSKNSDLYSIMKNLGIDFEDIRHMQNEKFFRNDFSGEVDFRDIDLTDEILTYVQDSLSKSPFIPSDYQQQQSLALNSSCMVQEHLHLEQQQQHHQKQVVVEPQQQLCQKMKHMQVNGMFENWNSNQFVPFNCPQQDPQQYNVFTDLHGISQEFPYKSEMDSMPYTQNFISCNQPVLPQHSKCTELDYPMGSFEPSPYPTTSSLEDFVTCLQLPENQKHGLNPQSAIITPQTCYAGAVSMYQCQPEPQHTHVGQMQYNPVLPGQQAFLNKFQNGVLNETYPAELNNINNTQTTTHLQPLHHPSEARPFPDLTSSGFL
T4 sequence (Q13936 whole entry): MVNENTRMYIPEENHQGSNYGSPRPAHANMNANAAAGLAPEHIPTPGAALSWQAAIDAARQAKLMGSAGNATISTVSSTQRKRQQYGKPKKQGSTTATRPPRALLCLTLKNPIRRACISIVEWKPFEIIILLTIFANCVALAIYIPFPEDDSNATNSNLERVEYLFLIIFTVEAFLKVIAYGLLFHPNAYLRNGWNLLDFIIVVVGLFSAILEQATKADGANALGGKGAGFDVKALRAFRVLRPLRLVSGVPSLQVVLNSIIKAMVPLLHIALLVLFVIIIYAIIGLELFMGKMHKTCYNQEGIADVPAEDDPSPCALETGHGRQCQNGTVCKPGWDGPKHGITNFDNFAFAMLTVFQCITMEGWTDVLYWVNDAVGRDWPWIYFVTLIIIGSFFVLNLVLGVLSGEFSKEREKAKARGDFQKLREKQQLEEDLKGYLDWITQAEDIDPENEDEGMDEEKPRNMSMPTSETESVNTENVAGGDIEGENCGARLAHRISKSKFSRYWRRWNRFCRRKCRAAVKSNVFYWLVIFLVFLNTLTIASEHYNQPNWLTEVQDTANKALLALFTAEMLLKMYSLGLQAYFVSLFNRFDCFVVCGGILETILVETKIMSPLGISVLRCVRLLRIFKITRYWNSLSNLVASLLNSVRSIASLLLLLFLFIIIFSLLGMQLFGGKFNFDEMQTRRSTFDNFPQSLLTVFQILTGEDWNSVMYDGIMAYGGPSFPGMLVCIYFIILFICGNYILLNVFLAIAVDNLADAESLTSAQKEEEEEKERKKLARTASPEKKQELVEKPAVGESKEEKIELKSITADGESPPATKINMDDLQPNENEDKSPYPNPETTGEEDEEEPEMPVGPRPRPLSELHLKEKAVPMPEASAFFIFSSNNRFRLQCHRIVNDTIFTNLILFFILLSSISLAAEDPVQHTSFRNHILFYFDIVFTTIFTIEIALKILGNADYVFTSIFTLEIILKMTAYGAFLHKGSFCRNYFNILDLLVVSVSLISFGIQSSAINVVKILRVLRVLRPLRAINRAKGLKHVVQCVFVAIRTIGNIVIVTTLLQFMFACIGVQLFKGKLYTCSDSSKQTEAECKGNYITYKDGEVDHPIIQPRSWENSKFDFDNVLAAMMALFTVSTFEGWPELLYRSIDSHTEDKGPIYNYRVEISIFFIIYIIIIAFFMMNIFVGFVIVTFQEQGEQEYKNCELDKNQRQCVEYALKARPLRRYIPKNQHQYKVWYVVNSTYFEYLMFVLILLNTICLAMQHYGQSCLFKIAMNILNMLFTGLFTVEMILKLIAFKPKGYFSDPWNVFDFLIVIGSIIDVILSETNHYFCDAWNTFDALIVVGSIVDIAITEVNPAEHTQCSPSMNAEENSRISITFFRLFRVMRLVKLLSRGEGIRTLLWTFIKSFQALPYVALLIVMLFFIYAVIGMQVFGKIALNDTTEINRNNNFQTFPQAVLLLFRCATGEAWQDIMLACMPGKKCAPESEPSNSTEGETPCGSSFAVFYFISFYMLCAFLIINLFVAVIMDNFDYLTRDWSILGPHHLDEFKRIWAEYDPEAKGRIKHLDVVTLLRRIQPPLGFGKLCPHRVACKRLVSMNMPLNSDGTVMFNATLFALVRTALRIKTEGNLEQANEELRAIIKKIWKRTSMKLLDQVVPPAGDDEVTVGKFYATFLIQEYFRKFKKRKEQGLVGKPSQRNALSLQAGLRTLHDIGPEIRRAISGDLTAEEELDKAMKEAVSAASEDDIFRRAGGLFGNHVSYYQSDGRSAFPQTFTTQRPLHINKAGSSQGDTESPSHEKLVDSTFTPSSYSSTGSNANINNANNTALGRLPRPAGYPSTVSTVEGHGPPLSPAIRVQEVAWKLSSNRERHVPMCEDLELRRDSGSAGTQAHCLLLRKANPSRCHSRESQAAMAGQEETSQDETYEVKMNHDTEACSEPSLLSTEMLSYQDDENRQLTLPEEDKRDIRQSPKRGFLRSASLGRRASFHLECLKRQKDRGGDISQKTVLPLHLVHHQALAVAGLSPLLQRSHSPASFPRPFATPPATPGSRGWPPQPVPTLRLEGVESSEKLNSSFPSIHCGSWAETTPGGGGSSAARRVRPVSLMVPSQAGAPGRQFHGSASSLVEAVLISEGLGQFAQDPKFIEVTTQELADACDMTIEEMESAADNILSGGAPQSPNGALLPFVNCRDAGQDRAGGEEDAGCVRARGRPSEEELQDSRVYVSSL
T4 sequence (Q08289 whole entry partner): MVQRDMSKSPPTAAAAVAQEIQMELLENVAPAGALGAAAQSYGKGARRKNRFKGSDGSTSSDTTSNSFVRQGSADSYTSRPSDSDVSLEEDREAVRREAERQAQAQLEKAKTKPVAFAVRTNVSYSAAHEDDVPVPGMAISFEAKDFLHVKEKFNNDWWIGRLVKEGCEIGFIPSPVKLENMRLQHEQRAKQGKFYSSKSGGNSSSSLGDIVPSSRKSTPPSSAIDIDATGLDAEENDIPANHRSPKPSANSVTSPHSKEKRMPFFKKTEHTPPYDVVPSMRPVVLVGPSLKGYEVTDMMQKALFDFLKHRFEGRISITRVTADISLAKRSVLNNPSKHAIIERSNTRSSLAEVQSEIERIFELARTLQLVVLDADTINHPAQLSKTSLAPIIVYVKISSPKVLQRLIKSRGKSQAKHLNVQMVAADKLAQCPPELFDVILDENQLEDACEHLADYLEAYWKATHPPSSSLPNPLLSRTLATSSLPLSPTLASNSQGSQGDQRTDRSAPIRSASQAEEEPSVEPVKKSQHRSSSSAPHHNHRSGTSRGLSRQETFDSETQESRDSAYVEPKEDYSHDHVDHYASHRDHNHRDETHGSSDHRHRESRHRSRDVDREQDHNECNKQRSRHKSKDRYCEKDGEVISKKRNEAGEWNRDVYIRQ
T4 sequence (P54289 25-956 partner limits assumed): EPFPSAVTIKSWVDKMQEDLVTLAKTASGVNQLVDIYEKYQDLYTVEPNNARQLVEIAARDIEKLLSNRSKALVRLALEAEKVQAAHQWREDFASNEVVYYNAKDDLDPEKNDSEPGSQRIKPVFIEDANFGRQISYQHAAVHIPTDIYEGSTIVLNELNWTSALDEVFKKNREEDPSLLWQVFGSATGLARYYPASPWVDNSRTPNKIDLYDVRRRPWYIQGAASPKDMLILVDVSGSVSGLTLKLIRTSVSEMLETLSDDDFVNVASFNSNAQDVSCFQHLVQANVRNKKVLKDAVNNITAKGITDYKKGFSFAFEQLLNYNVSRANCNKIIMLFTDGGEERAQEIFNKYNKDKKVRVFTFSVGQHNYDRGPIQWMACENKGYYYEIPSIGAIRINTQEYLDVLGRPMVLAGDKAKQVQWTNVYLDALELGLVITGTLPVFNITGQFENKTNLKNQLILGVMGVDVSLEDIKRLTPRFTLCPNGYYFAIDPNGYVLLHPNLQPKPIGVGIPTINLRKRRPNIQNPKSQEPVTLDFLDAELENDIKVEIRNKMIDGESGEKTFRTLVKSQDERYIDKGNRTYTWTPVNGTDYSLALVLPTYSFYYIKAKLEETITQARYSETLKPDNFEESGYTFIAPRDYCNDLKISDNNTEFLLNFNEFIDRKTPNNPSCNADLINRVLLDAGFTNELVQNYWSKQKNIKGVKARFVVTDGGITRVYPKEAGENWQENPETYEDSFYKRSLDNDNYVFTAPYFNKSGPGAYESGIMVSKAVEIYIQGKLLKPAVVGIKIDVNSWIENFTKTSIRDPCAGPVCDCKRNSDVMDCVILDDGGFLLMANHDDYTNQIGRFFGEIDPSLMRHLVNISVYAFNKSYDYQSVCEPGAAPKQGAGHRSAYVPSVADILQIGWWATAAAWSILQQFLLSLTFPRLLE
T4 sequence (P54289 957-1103 partner limits assumed): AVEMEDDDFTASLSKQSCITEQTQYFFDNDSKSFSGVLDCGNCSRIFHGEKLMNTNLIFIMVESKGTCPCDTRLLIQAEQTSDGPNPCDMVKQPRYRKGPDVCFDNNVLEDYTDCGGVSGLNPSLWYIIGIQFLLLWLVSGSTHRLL

CC(C)Oc1ccc(-c2ncc(CNc3ccnc(C(F)(F)F)c3)cn2)cc1Cl [Compound 24]
IC50 [1]: 0.245 ± 0.04 µM | Production of pyocyanin by clinical isolates [2]: dramatic reduction | IC50 (hERG): 15.8 µM | fold AhR receptor induction (AhR receptor; fold activation @1 × 10^−6 M): 0.91 @1 × 10^−6 M ^a) | AhR induction (AhR receptor; up to 25 × 10^−6 M): Neither AhR induction | IC50 (CYP2C9): > 25 µM | IC50 [3]: > 30 µM | IC50 (TRPC6 channel): > 30 µM

Source: article PMC9929129, “Towards Translation of PqsR Inverse Agonists: From In Vitro Efficacy Optimization to In Vivo Proof‐of‐Principle” (Advanced Science, 2023)
